From PubChem BioAssay (NCI) come the findings set out here.

Where “and” joins values, the source holds several entries; their conditions need not be identical. Identical values can stand only once.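 Each compound was tested at five concentrations against cells in 96-well plates for 48 hours. GI50: concentration for 50% inhibition of growth. TGI is the concentration that stops growth completely.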

Among the test systems are BT-549 breast; COLO 205 colon; HCC-2998 colon; HCT-15 colon; HOP-92 NSCLC; MALME-3M melanoma; MOLT-4 leukemia; NCI-H460 lung.
Holding throughout (test): NCI anticancer screen, dose series, 48 h

For `O=c1cccc(C#CC#CCCCO)o1`, the GI50 with BT-549 breast is 7950 nM; with COLO 205 colon it was 2940 nM; in the test on HCC-2998 colon, 2580 nM; in the test on HCT-15 colon, 2110 nM; in the test on HOP-92 NSCLC, 2470 nM; with MALME-3M melanoma, 788 nM. The GI50 with MOLT-4 leukemia was 4820 nM; in the test with NCI-H460 lung, 9550 nM. The TGI amounted to 23600 nM in the test with BT-549 breast; 7870 nM with COLO 205 colon; 7380 nM with HCC-2998 colon; 5300 nM in the test with HCT-15 colon; 6130 nM with HOP-92 NSCLC; 3780 nM with MALME-3M melanoma. In addition, the TGI with MOLT-4 leukemia is greater than 28800 nM; with NCI-H460 lung, 33600 nM.
With `CCN1C(=O)N(CC)C2C1NN=c1s/c(=C\c3ccc[nH]3)c(=O)n12` (stereo not drawn), the GI50 in the test with BT-549 breast is 834 nM; in the test on COLO 205 colon it was 349 nM; in the test with HCC-2998 colon it was 1820 nM; in the test on HCT-15 colon it was 337 nM; in the test on HOP-92 NSCLC it was 13400 nM; in the test with MALME-3M melanoma, 546 nM. Further, the GI50 was 543 nM in the test on MOLT-4 leukemia and 360 nM in the test on NCI-H460 lung. The TGI in the test with BT-549 breast is greater than 100000 nM; in the test on COLO 205 colon, 1820 nM; in the test on HCC-2998 colon, greater than 100000 nM; in the test with HCT-15 colon, greater than 100000 nM; in the test on HOP-92 NSCLC, greater than 100000 nM; in the test on MALME-3M melanoma, greater than 100000 nM. In addition, the values for the TGI with MOLT-4 leukemia and in the test on NCI-H460 lung were greater than 100000 nM and greater than 41800 nM, respectively.
`Nc1ncccc1-c1nc2ccc(-c3ccccc3)nc2n1-c1ccc(C2(N)CCC2)cc1`: the GI50 in the test on BT-549 breast was 344 nM; in the test with COLO 205 colon, 422 nM; in the test with HCC-2998 colon, 1190 nM; in the test with HCT-15 colon, 1340 nM; with HOP-92 NSCLC, 64.4 nM; with MALME-3M melanoma, 197 nM. The GI50 in the test with MOLT-4 leukemia was 188 nM; in the test with NCI-H460 lung, 333 nM. The TGI was determined as 5140 nM in the test with BT-549 breast; 2140 nM with COLO 205 colon; 2770 nM in the test with HCC-2998 colon; 4270 nM with HCT-15 colon; 1200 nM in the test on HOP-92 NSCLC; 1840 nM in the test on MALME-3M melanoma. Besides, the TGI amounted to 7880 nM in the test on MOLT-4 leukemia and 2990 nM in the test on NCI-H460 lung.
Regarding `C=CCCCOC1[C@H](OCc2ccccc2)C(OCc2ccccc2)C(OC)O[C@@H]1CNC(=O)c1cccc(I)c1` (stereo partly drawn), the GI50 was 8790 nM in the test with BT-549 breast; 5020 nM in the test on COLO 205 colon; greater than 100000 nM with HCC-2998 colon; 3550 nM in the test on HCT-15 colon; 5080 nM with HOP-92 NSCLC; 5430 nM in the test with MALME-3M melanoma. Moreover, the GI50 with MOLT-4 leukemia was 1900 nM; with NCI-H460 lung, 2910 nM. Besides, the TGI in the test with BT-549 breast, with COLO 205 colon, in the test on HCC-2998 colon, with HCT-15 colon, with HOP-92 NSCLC and in the test on MALME-3M melanoma was greater than 100000 nM in each case. For the same compound, the figures for the TGI in the test with MOLT-4 leukemia and in the test on NCI-H460 lung were greater than 100000 nM and 8640 nM, respectively.
In the case of `C[C@@H]1COCCN1c1cc(-c2ccnn2C)c2ccnc(-c3ccn[nH]3)c2n1`, the GI50 with BT-549 breast is 48.1 nM and 69.1 nM; in the test with COLO 205 colon, 280 nM and 573 nM; in the test on HCC-2998 colon it was 27.7 nM and 58.1 nM; in the test with HCT-15 colon, 34.4 nM and 96.8 nM; with HOP-92 NSCLC, 81.5 nM and 175 nM; in the test on MALME-3M melanoma it was 179 nM and 273 nM. The GI50 with MOLT-4 leukemia is 31.9 nM and 75.1 nM; in the test on NCI-H460 lung, 56.1 nM and 128 nM. Besides, the TGI in the test with BT-549 breast is 876 nM and 1760 nM; in the test with COLO 205 colon it was 5700 nM and > 23400 nM; with HCC-2998 colon, 18600 nM and > 100000 nM; in the test on HCT-15 colon, greater than 100000 nM; in the test with HOP-92 NSCLC it was 651 nM and 3080 nM; with MALME-3M melanoma it was 1520 nM and 3700 nM. The TGI with MOLT-4 leukemia worked out at 9080 nM.
With `Brc1cccc(-c2cc(-c3ccc4nccnc4c3)[nH]n2)c1`, the GI50 was 2150 nM in the test on BT-549 breast; 286 nM in the test on COLO 205 colon; 3250 nM in the test with HCC-2998 colon; 165 nM with HCT-15 colon; 4540 nM in the test on HOP-92 NSCLC; 1300 nM in the test on MALME-3M melanoma. For the same compound, the GI50 in the test with MOLT-4 leukemia was 1520 nM; with NCI-H460 lung, 729 nM. Moreover, the TGI in the test on BT-549 breast is greater than 250000 nM; in the test with COLO 205 colon, 3930 nM; in the test on HCC-2998 colon, greater than 250000 nM; with HCT-15 colon, greater than 250000 nM; with HOP-92 NSCLC it was greater than 250000 nM; with MALME-3M melanoma, greater than 250000 nM. The values for the TGI in the test with MOLT-4 leukemia and in the test with NCI-H460 lung were greater than 145000 nM and greater than 60000 nM, respectively.
Turning to `Cc1c2ccncc2c(C)c2c1c1cc(CO)ccc1n2C`, the GI50 is 1730 nM with BT-549 breast; 373 nM in the test on COLO 205 colon; 720 nM in the test with HCC-2998 colon; 354 nM with HCT-15 colon; 636 nM with HOP-92 NSCLC; 622 nM with MALME-3M melanoma. The GI50 in the test on MOLT-4 leukemia was 368 nM; in the test with NCI-H460 lung it was 243 nM. For the same compound, the TGI in the test with BT-549 breast amounted to 7840 nM; with COLO 205 colon it was 1940 nM; with HCC-2998 colon, 3420 nM; in the test on HCT-15 colon it was 10000 nM; in the test with HOP-92 NSCLC, 4870 nM; with MALME-3M melanoma, 2510 nM. Besides, the TGI with MOLT-4 leukemia was 2130 nM; with NCI-H460 lung it was 1100 nM.
For `NS(=O)(=O)c1cccc(-c2ccc3c(NC(=O)C4CC4)n[nH]c3c2)c1`, the GI50 in the test on BT-549 breast is greater than 21000 nM; with COLO 205 colon, greater than 14500 nM; with HCC-2998 colon it was greater than 22100 nM; in the test with HCT-15 colon, greater than 25000 nM; with HOP-92 NSCLC it was greater than 25000 nM; in the test on MALME-3M melanoma it was greater than 19800 nM. Besides, the GI50 in the test on MOLT-4 leukemia is 19200 nM; in the test on NCI-H460 lung, greater than 16400 nM. Besides, the TGI is greater than 25000 nM with BT-549 breast; greater than 22900 nM in the test on COLO 205 colon; greater than 25000 nM in the test on HCC-2998 colon; greater than 25000 nM with HCT-15 colon; greater than 25000 nM with HOP-92 NSCLC; greater than 25000 nM in the test on MALME-3M melanoma. Also, the TGI in the test with MOLT-4 leukemia and with NCI-H460 lung was greater than 25000 nM each time.
As to `COc1cccc(CC(C)=C(c2ccc(OCCCN(C)C)cc2)c2ccc(OCCCN(C)C)cc2)c1`, the GI50 with BT-549 breast was 3090 nM; in the test on COLO 205 colon, 432 nM; with HCC-2998 colon, 446 nM; in the test with HCT-15 colon, 478 nM; in the test on HOP-92 NSCLC, 747 nM; with MALME-3M melanoma, 403 nM. Further, the GI50 is 502 nM in the test on MOLT-4 leukemia and 484 nM with NCI-H460 lung. For the same compound, the TGI with BT-549 breast was determined as 6420 nM; in the test on COLO 205 colon it was 868 nM; with HCC-2998 colon, 906 nM; in the test with HCT-15 colon it was 950 nM; with HOP-92 NSCLC it was 3790 nM; with MALME-3M melanoma, 774 nM. Further, the TGI in the test with MOLT-4 leukemia was 1110 nM; with NCI-H460 lung, 940 nM.
